From patent publication US8664236B2, “1H-pyrrolo[2,3 b]-pyridine derivatives” (Merck Patent GmbH, priority 2010, dated 2014)
Read-outs that look alike come from different tables or passages of the source.

What was measured:
[1] = target: PDK1 kinase in PC3 cells (PKB phosphorylation at Thr 308) (Homo sapiens (Human), UniProt O15530); test: Cellular testing of PDK1 kinase inhibitors in PC3 cells (Luminex, phospho-T308-PKB); type: cell-based
Procedure: Method for the Cellular Testing of PDK1 Kinase Inhibitors in PC3 Cells
The cellular assay for the determination of the PDK1 kinase activity is carried out as a Luminex assay in the 96-well format. PC3 cells are sown at 20,000 cells per well in 100 μl of medium (45% of […]/45% of Ham's F12/10% of FCS) and incubated on the following day for 30 min with a serial dilution of the test substance (7 concentrations) under serum-free conditions. The cells are subsequently lysed using 90 μl of lysis buffer (20 mM tris/HCl pH 8.0, 150 mM NaCl, 1% of NP40, 10% of glycerol, 1% of phosphatase inhibitor I, 1% of phosphatase inhibitor II, 0.1% of protease inhibitor cocktail III, 0.01% of benzonase) per well, and the lysates are separated off from insoluble cell constituents by means of centrifugation through a 96-well filter plate (0.65 μm). The lysates are incubated overnight at 4° C. with shaking with Luminex beads to which an anti-total PKB antibody is coupled. The detection is carried out on the following day by addition of a phospho-T308-PKB antibody and a species-specific […] secondary antibody. The detection of phospho-T308-PKB is carried out by measurement in a Luminex100 instrument by determination of 100 events per cavity in a measurement time of 60 sec. […] The values of the batches treated with test substance are calculated therefrom as percentage of control, and IC50 values are determined by means of RS1.

PDK1 (His6-PDK1(Δ1-50)) = PDK1 (His6-PDK1(Δ1-50)) (Homo sapiens (Human), UniProt O15530); test: Test for the inhibition of PDK1 (enzymatic, flashplate, 33P-ATP); type: biochemical
Procedure: 4. Test for the Inhibition of PDK1
The experimental batches are carried out in a flashplate system with 384 wells/microtitration plate.
The test substances are employed in corresponding concentrations (if desired in a dilution series). The control is carried out without test substance. The reaction is stopped using standard methods and washed. The activity of the kinase is measured via the incorporated radioactivity in top count. In order to determine the non-specific kinase reaction (blank value), the experimental batches are carried out in the presence of 100 nM staurosporine.
The radioactivity (decompositions per minute) of the blank value (no use of test substance in the presence of staurosporine) is subtracted from all other radioactivity values. The controls (kinase activity without test substance) are set equal to 100 percent and all other radioactivity values (after subtracting the blank value) are expressed set in relation thereto (for example in % of the control).

[2] = PKB phosphorylation at Thr 308 in PC3 cells, read-out: cellular IC50
[3] = enzymatic PDK1 inhibition assay, read-out: enzymatic IC50
[4] = Table I comparison, read-out: PDK1 inhibition assay enzymatic IC50

Sequence of PDK1 kinase in PC3 cells (PKB phosphorylation at Thr 308) (O15530 whole entry): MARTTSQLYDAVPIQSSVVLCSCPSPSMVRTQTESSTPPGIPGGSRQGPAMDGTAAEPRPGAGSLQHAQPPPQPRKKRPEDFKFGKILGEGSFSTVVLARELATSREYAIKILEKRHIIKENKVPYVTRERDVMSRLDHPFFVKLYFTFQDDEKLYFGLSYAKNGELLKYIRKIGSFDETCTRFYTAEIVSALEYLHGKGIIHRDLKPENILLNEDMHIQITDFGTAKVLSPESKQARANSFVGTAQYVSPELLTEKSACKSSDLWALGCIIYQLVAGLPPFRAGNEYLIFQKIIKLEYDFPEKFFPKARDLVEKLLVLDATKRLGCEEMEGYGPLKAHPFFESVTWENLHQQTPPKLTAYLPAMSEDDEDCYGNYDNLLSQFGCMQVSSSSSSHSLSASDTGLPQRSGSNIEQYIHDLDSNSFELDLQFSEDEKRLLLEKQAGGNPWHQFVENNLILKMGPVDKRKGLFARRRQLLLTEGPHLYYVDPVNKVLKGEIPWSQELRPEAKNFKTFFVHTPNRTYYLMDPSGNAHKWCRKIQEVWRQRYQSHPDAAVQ
Sequence of PDK1 (His6-PDK1(Δ1-50)) (O15530 51-556): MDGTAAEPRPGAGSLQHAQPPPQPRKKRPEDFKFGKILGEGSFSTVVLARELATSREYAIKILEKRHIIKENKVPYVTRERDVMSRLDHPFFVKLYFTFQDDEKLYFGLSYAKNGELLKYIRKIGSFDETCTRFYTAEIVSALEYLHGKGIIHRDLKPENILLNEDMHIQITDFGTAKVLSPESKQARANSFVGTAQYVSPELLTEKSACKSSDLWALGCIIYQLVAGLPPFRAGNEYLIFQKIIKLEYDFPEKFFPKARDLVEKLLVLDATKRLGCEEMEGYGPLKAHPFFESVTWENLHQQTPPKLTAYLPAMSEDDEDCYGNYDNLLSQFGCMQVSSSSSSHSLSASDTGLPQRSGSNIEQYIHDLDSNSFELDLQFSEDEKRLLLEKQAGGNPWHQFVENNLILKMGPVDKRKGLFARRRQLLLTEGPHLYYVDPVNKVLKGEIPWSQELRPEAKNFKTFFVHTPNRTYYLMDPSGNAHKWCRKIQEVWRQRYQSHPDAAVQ

Row | Compound | IC50 [1, 2] | IC50 (PDK1 (His6-PDK1(Δ1-50)); [3]) | further results
1 | CN(c1cccc(Cl)c1)c1cc(-c2c[nH]c3ncc(-c4cnn(C)c4)cc23)nc(N)n1 [A8, N4-(3-Chlorophenyl)-N4-methyl-6-[5-(1-methyl-1H-pyrazol-4-yl)-1H-pyrrolo[2,3-b]pyridin-3-yl]pyrimidine-2,4-diamine] | 200 nM | 51 nM | –
2 | CC(C)n1cc(-c2cnc3[nH]cc(-c4cc(N5CCc6cc(F)ccc65)nc(N)n4)c3c2)cn1 [A18, 4-(5-Fluoro-2,3-dihydroindol-1-yl)-6-[5-(1-isopropyl-1H-pyrazol-4-yl)-1H-pyrrolo[2,3-b]pyridin-3-yl]pyrimidin-2-ylamine] | > 10000 nM | 5900 nM | –
3 | CCN(c1cc(-c2c[nH]c3ncc(-c4cnn(C)c4)cc23)nc(N)n1)c1nncs1 [A20, N4-Ethyl-6-[5-(1-methyl-1H-pyrazol-4-yl)-1H-pyrrolo[2,3-b]pyridin-3-yl]-N4-1,3,4-thiadiazol-2-ylpyrimidine-2,4-diamine] | > 10000 nM | 155 nM | –
4 | Cn1cc(-c2cnc3[nH]cc(-c4cc(N5CCc6cc(F)ccc65)nc(N)n4)c3c2)cn1 [A17, 4-(5-Fluoro-2,3-dihydroindol-1-yl)-6-[5-(1-methyl-1H-pyrazol-4-yl)-1H-pyrrolo[2,3-b]pyridin-3-yl]pyrimidin-2-ylamine] | > 10000 nM | 200 nM | –
5 | CC(=O)NCCCN(c1ccccc1)c1cc(-c2c[nH]c3ncc(-c4cnn(C)c4)cc23)nc(N)n1 [A43, N-[3-({2-Amino-6-[5-(1-methyl-1H-pyrazol-4-yl)-1H-pyrrolo-[2,3-b]pyridin-3-yl]pyrimidin-4-yl}phenylamino)propyl]acetamide] | 430 nM | 22 nM | IC50 ([1]; Table I comparison, values in nM, read-out: PDK1 inhibition assay cellular IC50): 430 nM; IC50 (PDK1 (His6-PDK1(Δ1-50)); [4]): 22 nM
6 | Cn1cc(-c2cnc3[nH]cc(-c4cc(N(CCC#N)c5ccccc5Cl)nc(N)n4)c3c2)cn1 [A30, 3-[{2-amino-6-[5-(1-methyl-1H-pyrazol-4-yl)-1H-pyrrolo[2,3-b]-pyridin-3-yl]pyrimidin-4-yl}-(2-chlorophenyl)amino]propionitrile] | – | – | IC50 (PDK1 (His6-PDK1(Δ1-50))): 9.1 nM
7 | CCN(c1ccc(Cl)cc1)c1cc(-c2c[nH]c3ncc(-c4cnn(C)c4)cc23)nc(N)n1 [A13, N4-(4-Chlorophenyl)-N4-ethyl-6-[5-(1-methyl-1H-pyrazol-4-yl)-1H-pyrrolo[2,3-b]pyridin-3-yl]pyrimidine-2,4-diamine] | 120 nM | 46 nM | –
8 | CC(C)n1cc(-c2cnc3[nH]cc(-c4cc(N(C)c5ccccc5Cl)nc(N)n4)c3c2)cn1 [A19, N4-(2-Chlorophenyl)-6-[5-(1-isopropyl-1H-pyrazol-4-yl)-1H-pyrrolo[2,3-b]pyridin-3-yl]-N4-methylpyrimidine-2,4-diamine] | 400 nM | 30 nM | –
9 | CN(c1ccccc1)c1cc(-c2c[nH]c3ncc(-c4cnn(C)c4)cc23)nc(N)n1 [A11, N4-Methyl-6-[5-(1-methyl-1H-pyrazol-4-yl)-1H-pyrrolo[2,3-b]-pyridin-3-yl]-N4-phenylpyrimidine-2,4-diamine] | 800 nM | 16.5 nM | –
10 | Cn1cc(-c2cnc3[nH]cc(-c4cc(N5CCOc6ccccc65)nc(N)n4)c3c2)cn1 [A27, 4-(2,3-Dihydrobenzo-1,4-oxazin-4-yl)-6-[5-(1-methyl-1H-pyrazol-4-yl)-1H-pyrrolo[2,3-b]pyridin-3-yl]pyrimidin-2-ylamine] | > 10000 nM | 5 nM | –
11 | COCCN(c1cc(-c2c[nH]c3ncc(-c4cnn(C)c4)cc23)nc(N)n1)c1ccccc1Cl [A29, N4-(2-Chlorophenyl)-N4-(2-methoxyethyl)-6-[5-(1-methyl-1H-pyrazol-4-yl)-1H-pyrrolo[2,3-b]pyridin-3-yl]pyrimidine-2,4-diamine] | 25.5 nM | 7 nM | –
12 | CN(c1cccc(F)c1)c1cc(-c2c[nH]c3ncc(-c4cnn(C)c4)cc23)nc(N)n1 [A1, N4-(3-Fluorophenyl)-N4-methyl-6-[5-(1-methyl-1H-pyrazol-4-yl)-1H-pyrrolo[2,3-b]pyridin-3-yl]pyrimidine-2,4-diamine] | 280 nM | 34 nM | –
13 | COc1ccc(N(C[C@H](O)CO)c2cc(-c3c[nH]c4ncc(-c5cnn(C)c5)cc34)nc(N)n2)cc1 [A5, (S)-3-[{2-Amino-6-[5-(1-methyl-1H-pyrazol-4-yl)-1H-pyrrolo-[2,3-b]pyridin-3-yl]pyrimidin-4-yl}-(4-methoxyphenyl)amino]-propane-1,2-diol] | 6800 nM | 24 nM | –
14 | Cn1cc(-c2cnc3[nH]cc(-c4cc(C5(c6ccc(Cl)cc6)CCCC5)nc(N)n4)c3c2)cn1 [A7, 4-[1-(4-Chlorophenyl)cyclopentyl]-6-[5-(1-methyl-1H-pyrazol-4-yl)-1H-pyrrolo[2,3-b]pyridin-3-yl]pyrimidin-2-ylamine] | 1400 nM | 870 nM | –
15 | CC(C)n1cc(-c2cnc3[nH]cc(-c4cc(N(CCO)c5ccccc5Cl)nc(N)n4)c3c2)cn1 [A15, 2-[{2-Amino-6-[5-(1-isopropyl-1H-pyrazol-4-yl)-1H-pyrrolo[2,3-b]pyridin-3-yl]pyrimidin-4-yl)-(2-chlorophenyl)amino]-ethanol] | 2100 nM | – | –
16 | CCN(Cc1ccccc1)c1cc(-c2c[nH]c3ncc(-c4cnn(C)c4)cc23)nc(N)n1 [A14, N4-Benzyl-N4-ethyl-6-[5-(1-methyl-1H-pyrazol-4-yl)-1H-pyrrolo[2,3-b]pyridin-3-yl]pyrimidine-2,4-diamine] | 530 nM | 51 nM | –
17 | CN(c1cc(-c2c[nH]c3ncc(-c4cnn(C)c4)cc23)nc(N)n1)c1ccccc1F [A9, N4-(2-Fluorophenyl)-N4-methyl-6-[5-(1-methyl-1H-pyrazol-4-yl)-1H-pyrrolo[2,3-b]pyridin-3-yl]pyrimidine-2,4-diamine] | 27 nM | 9.7 nM | –
18 | Cn1cc(-c2cnc3[nH]cc(-c4cc(N(CCN5CCOCC5)c5cccc(F)c5)nc(N)n4)c3c2)cn1 [A28, N4-(3-Fluorophenyl)-6-[5-(1-methyl-1H-pyrazol-4-yl)-1H-pyrrolo[2,3-b]pyridin-3-yl]-N4-(2-morpholin-4-ylethyl)pyrimidine-2,4-diamine] | 9700 nM | 89 nM | –
19 | CN(c1cc(-c2c[nH]c3ncc(-c4cnn(C)c4)cc23)nc(N)n1)c1ccccc1Cl [A10, N4-(2-Chlorophenyl)-N4-methyl-6-[5-(1-methyl-1H-pyrazol-4-yl)-1H-pyrrolo[2,3-b]pyridin-3-yl]pyrimidine-2,4-diamine] | 26 nM | 7.6 nM | –
20 | COC(=O)CN(c1ccc(Cl)cc1)c1cc(-c2c[nH]c3ncc(-c4cnn(C)c4)cc23)nc(N)n1 [A24, Methyl [{2-amino-6-[5-(1-methyl-1H-pyrazol-4-yl)-1H-pyrrolo-[2,3-b]pyridin-3-yl]pyrimidin-4-yl)-(4-chlorophenyl)amino]acetate] | 470 nM | 69 nM | –
21 | Cn1cc(-c2cnc3[nH]cc(-c4cc(N(CC(O)CO)c5cccc(C#N)c5)nc(N)n4)c3c2)cn1 (stereo not drawn) [A22, 3-[{2-Amino-6-[5-(1-methyl-1H-pyrazol-4-yl)-1H-pyrrolo[2,3-b]-pyridin-3-yl]pyrimidin-4-yl}-(2,3-dihydroxypropyl)amino]-benzonitrile] | > 10000 nM | 90 nM | –
22 | Cn1cc(-c2cnc3[nH]cc(-c4cc(N(CCO)c5ccccc5F)nc(N)n4)c3c2)cn1 [A26, 2-[{2-Amino-6-[5-(1-methyl-1H-pyrazol-4-yl)-1H-pyrrolo[2,3-b]-pyridin-3-yl]pyrimidin-4-yl)-(2-fluorophenyl)amino]ethanol] | 23 nM | 5 nM | –
23 | CC(C)Cn1cc(-c2cnc3[nH]cc(-c4cc(CCCN)nc(N)n4)c3c2)cn1 [reference compound] | – | – | IC50 ([1]; Table I comparison, values given in μM, read-out: PDK1 inhibition assay cellular IC50): > 30000 nM; IC50 (PDK1 (His6-PDK1(Δ1-50)); [4]): 11 nM
24 | Cn1cc(-c2cnc3[nH]cc(-c4cc(N(CCC(=O)O)c5ccccc5Cl)nc(N)n4)c3c2)cn1 [A23, 3-[{2-Amino-6-[5-(1-methyl-1H-pyrazol-4-yl)-1H-pyrrolo[2,3-b]-pyridin-3-yl]pyrimidin-4-yl)-(2-chlorophenyl)amino]propionic acid] | > 10000 nM | 4.8 nM | –
25 | Cn1cc(-c2cnc3[nH]cc(-c4cc(C5(c6ccccc6)CC5)nc(N)n4)c3c2)cn1 [A3, 4-[5-(1-Methyl-1H-pyrazol-4-yl)-1H-pyrrolo[2,3-b]pyridin-3-yl]-6-(1-phenylcyclopropyl)pyrimidin-2-ylamine] | 110 nM | 59.5 nM | –
26 | CN(c1cccc(F)c1)c1cc(-c2c[nH]c3ncc(-c4cnn(C)c4)cc23)ncn1 [A30a] | 660 nM | – | –
